What is called Emax is the size of the effect at its maximum, as opposed to the concentration needed. In general, EC50 refers to the concentration that produces a half-maximal response. A low value points to greater potency.

The results in this text go back to patent US11725037B2, “Peptide dual agonists of GIPR and GLP2R” (University of Copenhagen, priority 2017, dated 2023).

The target of one experiment is T1, human GIP receptor (Homo sapiens, UniProt P48546).
T1 construct: host or cells: COS-7 (transient, calcium phosphate; pCMV-Script vector)
T1 sequence (P48546 22-466): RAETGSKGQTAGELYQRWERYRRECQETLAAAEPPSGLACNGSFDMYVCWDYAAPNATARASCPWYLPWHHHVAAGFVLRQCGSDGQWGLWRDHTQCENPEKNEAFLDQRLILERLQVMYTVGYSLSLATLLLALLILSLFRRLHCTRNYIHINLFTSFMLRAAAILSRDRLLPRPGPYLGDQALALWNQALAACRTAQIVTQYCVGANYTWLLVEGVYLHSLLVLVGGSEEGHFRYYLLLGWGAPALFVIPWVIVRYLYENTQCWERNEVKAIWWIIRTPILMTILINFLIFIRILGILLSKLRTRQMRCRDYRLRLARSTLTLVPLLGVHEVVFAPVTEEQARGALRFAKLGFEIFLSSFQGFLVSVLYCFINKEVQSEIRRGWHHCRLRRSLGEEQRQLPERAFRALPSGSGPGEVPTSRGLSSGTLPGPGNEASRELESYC
Briefly: cAMP accumulation assay (HitHunter cAMP XS) in transiently transfected COS-7 cells expressing the human GIP receptor. It counts as cell-based. The conditions noted are these: for Emax at 10 µM: COS-7, read-out: Emax (10 μM), GIP receptor; for EC50 / fold (fold change of native GIP), GIP receptor: Table 2; for EC50: cAMP, COS-7; for fold (fold change of native GIP), GIP receptor: EC50 relative to native GIP. As to the method:
(§1) The day after, the cells were washed twice with Hepes buffered saline (HBS) buffer and incubated with HBS and 1 mM 3-isobutyl-1-methylxanthine (IBMX) for 30 min at 37° C. Ligands were added and incubated for 30 min at 37° C. The HitHunter™ cAMP XS assay (DiscoveRx) was carried out according to the manufacturer's instructions.

For another experiment, the target named is T2, human GLP-2 receptor (Homo sapiens, UniProt O95838).
T2 construct: host or cells: COS-7 (transient, calcium phosphate; pCMV-Script vector)
T2 sequence (O95838 1-553): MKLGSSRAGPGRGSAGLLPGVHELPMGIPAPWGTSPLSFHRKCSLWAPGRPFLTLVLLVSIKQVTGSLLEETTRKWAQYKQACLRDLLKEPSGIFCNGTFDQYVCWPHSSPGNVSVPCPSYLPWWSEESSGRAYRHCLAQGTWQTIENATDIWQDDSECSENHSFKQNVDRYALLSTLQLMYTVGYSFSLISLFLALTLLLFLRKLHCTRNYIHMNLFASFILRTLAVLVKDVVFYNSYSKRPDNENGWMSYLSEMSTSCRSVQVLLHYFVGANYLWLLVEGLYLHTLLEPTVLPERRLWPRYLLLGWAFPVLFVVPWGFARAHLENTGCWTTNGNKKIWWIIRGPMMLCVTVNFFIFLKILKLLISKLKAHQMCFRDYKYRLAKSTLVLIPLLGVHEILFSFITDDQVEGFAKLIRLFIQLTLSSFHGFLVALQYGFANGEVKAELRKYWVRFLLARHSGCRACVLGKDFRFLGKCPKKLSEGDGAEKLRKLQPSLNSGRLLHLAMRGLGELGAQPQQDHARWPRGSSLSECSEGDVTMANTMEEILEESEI
Briefly: cAMP accumulation assay (HitHunter cAMP XS) in transiently transfected COS-7 cells expressing the human GLP-2 receptor. The note with it: for Emax at 10 µM: COS-7, read-out: Emax (10 μM), GLP-2 receptor; for EC50 / fold (fold change of native GLP-2), GLP-2 receptor: Table 2; for EC50: cAMP, COS-7; for fold (fold change of native GLP-2), GLP-2 receptor: EC50 relative to native GLP-2. It counts as cell-based. On the procedure: as §1
A general note: cAMP levels reflect the balance of adenylyl cyclase and phosphodiesterase activity.

Where [1] appears, read: logEC50, GIP receptor, log value.

Regarding `CCCCCCCCCCCCCCCC(=O)N[C@@H](Cc1c[nH]cn1)C(=O)N[C@@H](C)C(=O)N[C@@H](CC(=O)O)C(=O)NCC(=O)N[C@H](C(=O)N[C@@H](Cc1ccccc1)C(=O)N[C@H](C(=O)N[C@@H](CO)C(=O)N[C@@H](CC(=O)O)C(=O)N[C@@H](Cc1ccc(O)cc1)C(=O)N[C@@H](CO)C(=O)N[C@H](C(=O)N[C@H](C(=O)N[C@@H](CC(C)C)C(=O)N[C@@H](CC(=O)O)C(=O)N[C@@H](CC(N)=O)C(=O)N[C@@H](CC(C)C)C(=O)N[C@@H](C)C(=O)N[C@@H](C)C(=O)N[C@@H](CCCNC(=N)N)C(=O)N[C@@H](CC(=O)O)C(=O)N[C@@H](Cc1ccccc1)C(=O)N[C@H](C(=O)N[C@@H](CC(N)=O)C(=O)N[C@@H](Cc1c[nH]c2ccccc12)C(=O)N[C@@H](CC(C)C)C(=O)N[C@H](C(=O)N[C@@H](CCC(N)=O)C(=O)N[C@H](C(=O)N[C@@H](CCCCN)C(=O)N[C@H](C(=O)N[C@H](C(=O)N[C@@H](CCCCN)C(=O)O)[C@@H](C)O)[C@@H](C)CC)[C@@H](C)O)[C@@H](C)CC)[C@@H](C)CC)[C@@H](C)CC)[C@@H](C)O)[C@@H](C)CC)[C@@H](C)O` [Co-agonist 29], the Emax at 10 µM came to 115% at human GIP receptor and 82% at human GLP-2 receptor. Also, the EC50 at human GIP receptor (EC50(nM), GIP receptor) was 1.82 nM; at human GIP receptor (setting [1]) it was 1.82 nM; on human GLP-2 receptor (logEC50, GLP-2 receptor), 17.4 nM.

On to `CCCCCCCCCCCC(=O)NCCCC[C@H](NC(=O)[C@@H](NC(=O)[C@H](CCC(N)=O)NC(=O)[C@@H](NC(=O)[C@H](CC(C)C)NC(=O)[C@H](Cc1c[nH]c2ccccc12)NC(=O)[C@H](CC(N)=O)NC(=O)[C@@H](NC(=O)[C@H](Cc1ccccc1)NC(=O)[C@H](CC(=O)O)NC(=O)[C@H](CCCNC(=N)N)NC(=O)[C@H](C)NC(=O)[C@H](C)NC(=O)[C@H](CC(C)C)NC(=O)[C@H](CC(N)=O)NC(=O)[C@H](CC(=O)O)NC(=O)[C@H](CC(C)C)NC(=O)[C@@H](NC(=O)[C@@H](NC(=O)[C@H](CO)NC(=O)[C@H](Cc1ccc(O)cc1)NC(=O)[C@H](CC(=O)O)NC(=O)[C@H](CO)NC(=O)[C@@H](NC(=O)[C@H](Cc1ccccc1)NC(=O)[C@@H](NC(=O)CNC(=O)[C@H](CC(=O)O)NC(=O)[C@H](C)NC(=O)[C@@H](N)Cc1c[nH]cn1)[C@@H](C)O)[C@@H](C)CC)[C@@H](C)O)[C@@H](C)CC)[C@@H](C)CC)[C@@H](C)CC)[C@@H](C)O)C(=O)N[C@H](C(=O)N[C@H](C(=O)N[C@@H](CCCCN)C(=O)O)[C@@H](C)O)[C@@H](C)CC` [Co-agonist 30], for which, at human GIP receptor, the Emax at 10 µM was found to be 100% and the “fold (fold change of native GIP), GIP receptor” value (“fold (fold change of native GIP)” for short) stood at 7.1 fold. For the same compound, on human GLP-2 receptor, the Emax at 10 µM is 73% and the “fold (fold change of native GLP-2), GLP-2 receptor” value was 30 fold. The same compound gave an EC50 at human GLP-2 receptor (logEC50, GLP-2 receptor) of 36.3 nM.

For `CCCCCCCCCCCCCCCC(=O)NCCCC[C@H](NC(=O)[C@@H](NC(=O)[C@H](CCC(N)=O)NC(=O)[C@@H](NC(=O)[C@H](CC(C)C)NC(=O)[C@H](Cc1c[nH]c2ccccc12)NC(=O)[C@H](CC(N)=O)NC(=O)[C@@H](NC(=O)[C@H](Cc1ccccc1)NC(=O)[C@H](CC(=O)O)NC(=O)[C@H](CCCNC(=N)N)NC(=O)[C@H](C)NC(=O)[C@H](C)NC(=O)[C@H](CC(C)C)NC(=O)[C@H](CC(N)=O)NC(=O)[C@H](CC(=O)O)NC(=O)[C@H](CC(C)C)NC(=O)[C@@H](NC(=O)[C@@H](NC(=O)[C@H](CO)NC(=O)[C@H](Cc1ccc(O)cc1)NC(=O)[C@H](CC(=O)O)NC(=O)[C@H](CO)NC(=O)[C@@H](NC(=O)[C@H](Cc1ccccc1)NC(=O)[C@@H](NC(=O)CNC(=O)[C@H](CC(=O)O)NC(=O)[C@H](C)NC(=O)[C@@H](N)Cc1c[nH]cn1)[C@@H](C)O)[C@@H](C)CC)[C@@H](C)O)[C@@H](C)CC)[C@@H](C)CC)[C@@H](C)CC)[C@@H](C)O)C(=O)N[C@H](C(=O)N[C@H](C(=O)N[C@@H](CCCCN)C(=O)O)[C@@H](C)O)[C@@H](C)CC` [Co-agonist 31], at human GIP receptor, the Emax at 10 µM came out at 91% and the “fold (fold change of native GIP)” value is 19 fold. Further, at human GLP-2 receptor, the Emax at 10 µM amounted to 91% and the “fold (fold change of native GLP-2), GLP-2 receptor” value stood at 89 fold.

Regarding `CCCCCCCCCCCC(=O)NCCCC[C@H](NC(=O)[C@@H](NC(=O)[C@@H](NC(=O)[C@H](CCCCN)NC(=O)[C@@H](NC(=O)[C@H](CCC(N)=O)NC(=O)[C@@H](NC(=O)[C@H](CC(C)C)NC(=O)[C@H](Cc1c[nH]c2ccccc12)NC(=O)[C@H](CC(N)=O)NC(=O)[C@@H](NC(=O)[C@H](Cc1ccccc1)NC(=O)[C@H](CC(=O)O)NC(=O)[C@H](CCCNC(=N)N)NC(=O)[C@H](C)NC(=O)[C@H](C)NC(=O)[C@H](CC(C)C)NC(=O)[C@H](CC(N)=O)NC(=O)[C@H](CC(=O)O)NC(=O)[C@H](CC(C)C)NC(=O)[C@@H](NC(=O)[C@@H](NC(=O)[C@H](CO)NC(=O)[C@H](Cc1ccc(O)cc1)NC(=O)[C@H](CC(=O)O)NC(=O)[C@H](CO)NC(=O)[C@@H](NC(=O)[C@H](Cc1ccccc1)NC(=O)[C@@H](NC(=O)CNC(=O)[C@H](CC(=O)O)NC(=O)[C@H](C)NC(=O)[C@@H](N)Cc1c[nH]cn1)[C@@H](C)O)[C@@H](C)CC)[C@@H](C)O)[C@@H](C)CC)[C@@H](C)CC)[C@@H](C)CC)[C@@H](C)O)[C@@H](C)CC)[C@@H](C)O)C(=O)O` [Co-agonist 32], the Emax at 10 µM on human GIP receptor is 100%; at human GLP-2 receptor it was 91%. In addition, the “fold (fold change of native GIP)” value at human GIP receptor is reported as 1.7 fold. For the same compound, the EC50 at human GIP receptor (setting [1]) is 0.155 nM; at human GLP-2 receptor (EC50(nM), GLP-2 receptor) it was 6.2 nM. Moreover, the “fold (fold change of native GLP-2), GLP-2 receptor” value at human GLP-2 receptor worked out at 5.1 fold.

As for `CCCCCCCCCCCCCCCC(=O)NCCCC[C@H](NC(=O)[C@@H](NC(=O)[C@@H](NC(=O)[C@H](CCCCN)NC(=O)[C@@H](NC(=O)[C@H](CCC(N)=O)NC(=O)[C@@H](NC(=O)[C@H](CC(C)C)NC(=O)[C@H](Cc1c[nH]c2ccccc12)NC(=O)[C@H](CC(N)=O)NC(=O)[C@@H](NC(=O)[C@H](Cc1ccccc1)NC(=O)[C@H](CC(=O)O)NC(=O)[C@H](CCCNC(=N)N)NC(=O)[C@H](C)NC(=O)[C@H](C)NC(=O)[C@H](CC(C)C)NC(=O)[C@H](CC(N)=O)NC(=O)[C@H](CC(=O)O)NC(=O)[C@H](CC(C)C)NC(=O)[C@@H](NC(=O)[C@@H](NC(=O)[C@H](CO)NC(=O)[C@H](Cc1ccc(O)cc1)NC(=O)[C@H](CC(=O)O)NC(=O)[C@H](CO)NC(=O)[C@@H](NC(=O)[C@H](Cc1ccccc1)NC(=O)[C@@H](NC(=O)CNC(=O)[C@H](CC(=O)O)NC(=O)[C@H](C)NC(=O)[C@@H](N)Cc1c[nH]cn1)[C@@H](C)O)[C@@H](C)CC)[C@@H](C)O)[C@@H](C)CC)[C@@H](C)CC)[C@@H](C)CC)[C@@H](C)O)[C@@H](C)CC)[C@@H](C)O)C(=O)O` [Co-agonist 33], on human GIP receptor, the Emax at 10 µM stood at 100% and the “fold (fold change of native GIP)” value came out at 3.6 fold. Also, the EC50 at human GIP receptor (setting [1]) was 0.316 nM. In addition, at human GLP-2 receptor, the Emax at 10 µM is 82% and the “fold (fold change of native GLP-2), GLP-2 receptor” value amounted to 11 fold. This compound also gave an EC50 at human GLP-2 receptor (logEC50, GLP-2 receptor) of 12.9 nM.

With `CCCCCCCCCCCC(=O)NCCCC[C@H](NC(=O)CNC(=O)[C@H](CCCCN)NC(=O)[C@@H](NC(=O)[C@H](CCC(N)=O)NC(=O)[C@@H](NC(=O)[C@H](CC(C)C)NC(=O)[C@H](Cc1c[nH]c2ccccc12)NC(=O)[C@H](CC(N)=O)NC(=O)[C@@H](NC(=O)[C@H](Cc1ccccc1)NC(=O)[C@H](CC(=O)O)NC(=O)[C@H](CCCNC(=N)N)NC(=O)[C@H](C)NC(=O)[C@H](C)NC(=O)[C@H](CC(C)C)NC(=O)[C@H](CC(N)=O)NC(=O)[C@H](CC(=O)O)NC(=O)[C@H](CC(C)C)NC(=O)[C@@H](NC(=O)[C@@H](NC(=O)[C@H](CO)NC(=O)[C@H](Cc1ccc(O)cc1)NC(=O)[C@H](CC(=O)O)NC(=O)[C@H](CO)NC(=O)[C@@H](NC(=O)[C@H](Cc1ccccc1)NC(=O)[C@@H](NC(=O)CNC(=O)[C@H](CC(=O)O)NC(=O)[C@H](C)NC(=O)[C@@H](N)Cc1c[nH]cn1)[C@@H](C)O)[C@@H](C)CC)[C@@H](C)O)[C@@H](C)CC)[C@@H](C)CC)[C@@H](C)CC)[C@@H](C)O)C(=O)N[C@@H](CCCCN)C(=O)O` [Co-agonist 35], at human GIP receptor, the Emax at 10 µM was 99% and the “fold (fold change of native GIP)” value is reported as 5.4 fold. At human GLP-2 receptor, the Emax at 10 µM was 68% and the “fold (fold change of native GLP-2), GLP-2 receptor” value was found to be 1.9 fold. Further, a half-maximal effect on human GLP-2 receptor (logEC50, GLP-2 receptor) (EC50) was put at 2.34 nM.
